One test concerns Jurkat E6.1 cells. Kind of test: Anti-Fas induced apoptosis assay. Format: cell-based. As to conditions: Homo sapiens, anti-Fas antibody CH-11 10 ng/ml, 16-18 hrs, DNA fragmentation, OD405 nm. An excerpt: Cellular apoptosis may be induced by the binding of Fas ligand (FasL) to its receptor, CD95 (Fas). CD95 is one of a family of related receptors, known as death receptors, which can trigger apoptosis in cells via activation of the caspase enzyme cascade. The process is initiated by the binding of the adapter molecule FADD/MORT-1 to the cytoplasmic domain of the CD-95 receptor-ligand complex. Caspase-8 then binds FADD and becomes activated, initiating a cascade of events that involve the activation of downstream caspases and subsequent cellular apoptosis. Apoptosis can also be induced in cells expressing CD95 eg the Jurkat E6.1 T cell lymphoma cell line, using an antibody, rather than FasL, to crosslink the cell surface CD95. Anti-Fas-induced apoptosis is also triggered via the activation of caspase-8. This provides the basis of a cell based assay to screen compounds for inhibition of the caspase-8-mediated apoptotic pathway.
Jurkat E6.1 cells are cultured in complete medium consisting of RPMI-1640 (Sigma No)+10% foetal calf serum (Gibco BRL No. 10099-141)+2 mM L-glutamine (Sigma No. G-7513). The cells are harvested in log phase of growth. 100 ml Cells at 5-8×10^5 cells/ml are transferred to sterile 50 ml Falcon centrifuge tubes and centrifuged for 5 minutes at 100×g at room temperature. The supernatant is removed and the combined cell pellets resuspended in 25 ml of complete medium. The cells are counted and the density adjusted to 2×10^6cells/ml with complete medium.
The test compound is dissolved in dimethyl sulphoxide (DMSO)(Sigma No. D-2650) to give a 100 mM stock solution. This is diluted to 400 μM in complete medium, then serially diluted in a 96-well plate prior to addition to the cell assay plate.
100 μl of the cell suspension ([…]) is added to each well of a sterile 96-well round-bottomed cluster plate (Costar No. 3790). 501l of compound solution at the appropriate dilution and 50 μl of anti-Fas antibody, clone CH-11 (Kamiya No.MC-060) at a final concentration of 10 ng/ml, are added to the wells. Control wells are set up minus antibody and minus compound but with a serial dilution of DMSO as vehicle control. The plates are incubated for 16-18 hrs at 37° C. in 5% CO2 and 95% humidity.
Apoptosis of the cells is measured by the quantitation of DNA fragmentation using a ‘Cell Death Detection Assay’ from Boehringer-Mannheim, No. 1544 675. After incubation for 16-18 hrs the assay plates are centrifuged at 100×g at room temperature for 5 minutes. 150 μl of the supernatant are removed and replaced by 150 μl of fresh complete medium. The cells are then harvested and 200 μl of the lysis buffer supplied in the assay kit are added to each well. The cells are triturated to ensure complete lysis and incubated for 30 minutes at 4° C. The plates are then centrifuged at 1900×g for 10 minutes and the supernatants diluted 1:20 in the incubation buffer provided. 100 μl of this solution is then assayed exactly according to the manufacturer's instructions supplied with the kit. OD405 nm is measured 20 minutes after addition of the final substrate in a SPECTRAmax Plus plate reader (Molecular Devices). OD405 nm is plotted versus compound concentration and the IC50 values for the compounds are calculated using the curve fitting program SOFTmax Pro (Molecular Devices) using the four parameter fit option.

Another test deals with T1, Caspase-1 (Homo sapiens, UniProt P29466).
T1 sequence (P29466 120-297 limits assumed): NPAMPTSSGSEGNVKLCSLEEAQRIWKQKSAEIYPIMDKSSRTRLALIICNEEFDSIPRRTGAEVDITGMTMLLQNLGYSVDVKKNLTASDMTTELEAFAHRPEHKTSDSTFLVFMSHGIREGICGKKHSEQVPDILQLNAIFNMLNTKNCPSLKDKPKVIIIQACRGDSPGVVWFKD
T1 sequence (P29466 317-404 limits assumed): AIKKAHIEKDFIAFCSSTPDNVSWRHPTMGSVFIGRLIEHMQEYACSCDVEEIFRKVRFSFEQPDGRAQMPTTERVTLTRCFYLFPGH
Kind of test: Caspase-1 enzyme assay, cleavage of fluorogenic substrate. Format: biochemical. To be noted: second order rate constant of enzyme inactivation; substrate Acetyl-Tyr-Val-Ala-Asp-amino-4-methylcoumarin. The source says: (§1) The assays for caspase inhibition are based on the cleavage of a fluorogenic substrate by recombinant, purified human Caspases-1, -3, -7 or -8. The assays are run in essentially the same way as those reported by Garcia-Calvo et al. (J. Biol. Chem. 273 (1998), 32608-32613), using a substrate specific for each enzyme. The substrate for Caspase-1 is Acetyl-Tyr-Val-Ala-Asp-amino-4-methylcoumarin. The substrate for Caspases-3, -7 and -8 is Acetyl-Asp-Glu-val-Asp-amino-4-methylcoumarin.
(§2) The observed rate of enzyme inactivation at a particular inhibitor concentration, kobs, is computed by direct fits of the data to the equation derived by Thornberry et al. (Biochemistry 33 (1994), 3943-3939) using a nonlinear least-squares analysis computer program (PRISM 2.0; GraphPad software). To obtain the second order rate constant, kinact, kobs values are plotted against their respective inhibitor concentrations and kinact values are subsequently calculated by computerized linear regression.

The target in the next test is Caspase-8 (Homo sapiens, UniProt Q14790). Nature of the test: Caspase-8 enzyme assay, cleavage of fluorogenic substrate. It is filed as biochemical. As to conditions: second order rate constant of enzyme inactivation; substrate Acetyl-Asp-Glu-val-Asp-amino-4-methylcoumarin.
Sequence of Caspase-8 (Q14790 217-374 limits assumed): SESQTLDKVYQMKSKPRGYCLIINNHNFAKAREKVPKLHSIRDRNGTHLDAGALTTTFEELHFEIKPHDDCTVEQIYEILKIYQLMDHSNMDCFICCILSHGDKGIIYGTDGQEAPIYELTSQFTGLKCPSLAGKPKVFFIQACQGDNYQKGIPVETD
Sequence of Caspase-8 (Q14790 385-479 limits assumed): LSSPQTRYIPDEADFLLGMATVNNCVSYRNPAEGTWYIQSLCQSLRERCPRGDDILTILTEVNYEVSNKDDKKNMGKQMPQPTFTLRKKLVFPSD
Text: as §1, §2

The next test concerns the target T2, Caspase-3 (Homo sapiens, UniProt P42574).
T2 sequence (P42574 29-175 limits assumed): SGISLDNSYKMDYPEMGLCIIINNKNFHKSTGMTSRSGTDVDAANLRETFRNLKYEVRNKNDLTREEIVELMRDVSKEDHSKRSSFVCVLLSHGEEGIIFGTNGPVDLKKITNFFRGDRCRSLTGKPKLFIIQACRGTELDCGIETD
T2 sequence (P42574 176-277 limits assumed): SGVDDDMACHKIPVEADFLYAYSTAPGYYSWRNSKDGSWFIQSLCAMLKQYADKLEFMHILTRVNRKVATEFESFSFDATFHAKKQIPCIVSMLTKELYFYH
Nature of the test: Caspase-3 enzyme assay, cleavage of fluorogenic substrate. Format: biochemical. As to conditions: second order rate constant of enzyme inactivation; substrate Acetyl-Asp-Glu-val-Asp-amino-4-methylcoumarin.
Text: as §1, §2

The subject of test [1] is IL-1β secretion from peripheral blood mononuclear cells (PBMC). Nature of the test: Inhibition of IL-1β secretion from mixed population of PBMC. As to conditions: Homo sapiens, LPS 50 ng/ml, 16-18 h, mature IL-1β in supernatant. It is filed as cell-based. The procedure: Processing of pre-IL-1β by caspase-1 can be measured in cell culture using a variety of cell sources. Human PBMC obtained from healthy donors provides a mixed population of lymphocyte and mononuclear cells that produce a spectrum of interleukins and cytokines in response to many classes of physiological stimulators.
The test compound is dissolved in dimethyl sulfoxide (DMSO,Sigma #D-2650) to give a 100 mM stock solution. This is diluted in complete medium consisting of RPMI containing 10% heat inactivated FCS (Gibco BRL #10099-141), 2 mM L-Glutamine (Sigma, #G-7513), 100U penicillin and 100 μg/ml streptomycin (Sigma #P-7539). The final concentration range of test compound is from 100 μM down to 6 nM over eight dilution steps. The highest concentration of test compound is equivalent to 0.1% DMSO in the assay.
Human PBMC are isolated from Buffy Coats obtained from the blood bank using centrifugation on Ficoll-Paque leukocyte separation medium (Amersham, #17-1440-O2) and the cellular assay is performed in a sterile 96 well flat-bottomed plate (Nunc). Each well contains 100 μl of the cell suspension, 1×10^5 cells, 50 μl of compound dilutions and 50 μl of LPS (Sigma #L-3012) at 50 ng/ml final concentration. Controls consist of cells ± LPS stimulation and a serial dilution of DMSO diluted in the same way as compound. The plates are incubated for 16-18 h at 37° C. in 5% CO2 & 95% humidity atmosphere.
After 16-18 h the supernatants are harvested after centrifuging the plates at 100×g at 18° C. for 15 min and assayed for their IL-1β content. Measurement of mature IL-1β in the supernatant is performed using the Quantikine kits (R&D Systems) according to manufacturer's instructions. Mature IL-1β levels of about 600-1500 pg/ml are observed for PBMCs in positive control wells.
The inhibitory potency of the compounds can be represented by an IC50 value, which is the concentration of inhibitor at which 50% of the mature IL-1β is detected in the supernatant as compared to the positive controls.

Another test deals with T3, Caspase-7 (Homo sapiens, UniProt P55210).
T3 sequence (P55210 24-198 limits assumed): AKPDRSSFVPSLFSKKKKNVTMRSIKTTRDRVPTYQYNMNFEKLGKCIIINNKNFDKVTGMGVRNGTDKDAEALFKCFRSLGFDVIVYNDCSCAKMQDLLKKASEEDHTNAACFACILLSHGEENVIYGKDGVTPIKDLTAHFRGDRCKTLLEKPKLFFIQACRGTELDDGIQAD
T3 sequence (P55210 207-303 limits assumed): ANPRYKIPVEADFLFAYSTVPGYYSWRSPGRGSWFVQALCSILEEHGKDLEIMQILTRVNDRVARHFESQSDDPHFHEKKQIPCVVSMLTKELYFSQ
Nature of the test: Caspase-7 enzyme assay, cleavage of fluorogenic substrate. Format: biochemical. As to conditions: second order rate constant of enzyme inactivation; substrate Acetyl-Asp-Glu-val-Asp-amino-4-methylcoumarin.
Text: as §1, §2

Turning to `O=C(O)CC(NC(=O)Cn1ccc(-c2ccccc2)cc1=O)C(=O)CF` (stereo not drawn) [Compound 1A-4, 5-Fluoro-3-[2-(4-phenyl-2-oxo-2H-pyridin-1-yl)-acetylamino]-4-oxo-pentanoic acid], in the test with Jurkat E6.1 cells, the IC50 (in general, the concentration needed to halve the response being measured) turned out to be 650 nM. On Caspase-1, this compound came in with a Kinact of 40000 M⁻¹ s⁻¹. Further, on Caspase-8, the “Caspase-8 Kinact” value amounted to 13500 M⁻¹ s⁻¹.

For `C[C@@H](C(=O)NC(CC(=O)O)C(=O)CF)n1c(=O)ccc2ccccc21` (stereo partly drawn) [Compound 1B-1, 5-Fluoro-4-oxo-3-[(S)-2-(2-oxo-2H-quinolin-1-yl)-propionylamino]-pentanoic acid], the IC50 in the test with Jurkat E6.1 cells was 140 nM. Also, the Kinact on Caspase-3 was 24000 M⁻¹ s⁻¹; at Caspase-1, 47000 M⁻¹ s⁻¹. Further, the “Caspase-8 Kinact” value at Caspase-8 turned out to be 12000 M⁻¹ s⁻¹.

With `Cc1cccc(=O)n1CC(=O)NC(CC(=O)O)C(=O)CF` (stereo not drawn) [Compound 1A-3, 5-Fluoro-3-[2-(6-methyl-2-oxo-2H-pyridin-1-yl)-acetylamino]-4-oxo-pentanoic acid], the IC50 in the test on Jurkat E6.1 cells was 210 nM. The Kinact at Caspase-3 amounted to 51000 M⁻¹ s⁻¹; at Caspase-1, 36000 M⁻¹ s⁻¹. The “Caspase-8 Kinact” value on Caspase-8 stood at 6750 M⁻¹ s⁻¹.

Turning to `C[C@@H](C(=O)NC(CC(=O)O)C(=O)CF)N1C(=O)c2ccccc2C1=O` (stereo partly drawn) [Compound 1F-3, 5-Fluoro-4-oxo-3-[(2S)-2-(1,3-dioxo-1,3-dihydro-isoindol-2-yl)-propionylamino]-pentanoic acid], the IC50 in the test with Jurkat E6.1 cells came out at 30 nM; in test [1], 4000 nM. The Kinact on Caspase-3 was 220000 M⁻¹ s⁻¹; at Caspase-1, 115000 M⁻¹ s⁻¹. In addition, the “Caspase-8 Kinact” value on Caspase-8 was 15500 M⁻¹ s⁻¹.

In the test with Jurkat E6.1 cells, `CC(C)[C@@H](C(=O)NC(CC(=O)O)C(=O)CF)N1Cc2ccccc2N(Cc2cccc(Cl)c2)C1=O` (stereo partly drawn) [Compound 1D-1, 5-Fluoro-4-oxo-3-[(2S)-2-[1-(3-chlorobenzyl)-2-oxo-1,4-dihydro-2H-quinazolin-3-yl]-3-methyl-butyrylamino]-pentanoic acid] registered an IC50 of 20 nM. Moreover, the values for the Kinact on Caspase-3 and on Caspase-1 were 67000 M⁻¹ s⁻¹ and 107000 M⁻¹ s⁻¹, respectively. Moreover, the “Caspase-8 Kinact” value at Caspase-8 is 77000 M⁻¹ s⁻¹.

Regarding `CCC[C@@H](C(=O)NC(CC(=O)O)C(=O)CF)n1cnc2ccccc2c1=O` (stereo partly drawn) [Compound 1C-11, 5-Fluoro-4-oxo-3-[(2S)-2-(4-oxo-4H-quinazolin-3-yl)-pentanoylamino]-pentanoic acid], the half-inhibitory concentration (IC50) in the test on Jurkat E6.1 cells came to 20 nM; in test [1], 400 nM. In addition, the Kinact on Caspase-3 stood at 185000 M⁻¹ s⁻¹; on Caspase-1, 419000 M⁻¹ s⁻¹. At Caspase-8, the “Caspase-8 Kinact” value came to 72500 M⁻¹ s⁻¹.

Regarding `O=C(O)CC(NC(=O)Cn1ccc2ccccc2c1=O)C(=O)CF` (stereo not drawn) [Compound 1C-1, 5-Fluoro-4-oxo-3-[2-(1-oxo-1H-isoquinolin-2-yl)-acetylamino]-pentanoic acid], the values for the IC50 (in the test with Jurkat E6.1 cells; in test [1]) were 60 nM and 2900 nM, respectively. Moreover, the Kinact at Caspase-3 stood at 130000 M⁻¹ s⁻¹; at Caspase-1, 248000 M⁻¹ s⁻¹. For the same compound, the “Caspase-8 Kinact” value on Caspase-8 was found to be 27000 M⁻¹ s⁻¹. Besides, on Caspase-7, the “Caspase-7 Kinact” value came out at 26000 M⁻¹ s⁻¹.

Regarding `CC[C@@H](C(=O)NC(CC(=O)O)C(=O)CF)n1cnccc1=O` (stereo partly drawn) [Compound 1G-1, 5-Fluoro-4-oxo-3-[(2S)-2-(6-oxo-6H-pyrimidin-1-yl)-butyrylamino]-pentanoic acid], the figures for the IC50 (with Jurkat E6.1 cells; in test [1]) were 20 nM and 600 nM, respectively. Also, the Kinact came out at 420000 M⁻¹ s⁻¹ on Caspase-3 and 307000 M⁻¹ s⁻¹ at Caspase-1. Further, the “Caspase-8 Kinact” value at Caspase-8 is 68500 M⁻¹ s⁻¹. Further, at Caspase-7, the “Caspase-7 Kinact” value was determined as 147000 M⁻¹ s⁻¹.

As for `O=C(O)CC(NC(=O)Cn1cnc2sccc2c1=O)C(=O)CF` (stereo not drawn) [Compound 1E-1, 5-Fluoro-4-oxo-3-[2-(4-oxo-4H-thieno[2,3-d]pyrimidin-3-yl)-acetylamino]-pentanoic acid], the IC50 with Jurkat E6.1 cells came to 70 nM; in test [1], 10000 nM. In addition, the results for the Kinact on Caspase-3 and on Caspase-1 were 64000 M⁻¹ s⁻¹ and 46000 M⁻¹ s⁻¹, respectively. In addition, the “Caspase-8 Kinact” value at Caspase-8 is 13500 M⁻¹ s⁻¹.

For the origin of these results see US7517987B2, “Caspase inhibitors and uses thereof” (Vertex Pharmaceutical Incorporated, priority 1999, dated 2009).
